Literature values, collected in patent US5846944A (priority 1997, dated 1998).
Like-named read-outs stand apart in the source and are kept apart here.

Tested on: hypercholesterolemic atherosclerosis, New Zealand White rabbits
Conditions: cited from earlier work

| Compound | reduction of hypercholesterolemic atherosclerosis (Probucol 0.5% in the diet (equivalent to 250 mg/Kg), 0.5% cholesterol diet) | total cholesterol in the bloodstream (Probucol 0.5% in the diet, 0.5% cholesterol diet) | effect on reducing atherosclerosis (Probucol, depending upon the extent of the hypercholesterolemia) | reduction of hypercholesterolemic atherosclerosis (Vitamin E 40 mg/kg, rabbits) | total blood cholesterol (Vitamin E 40 mg/kg, rabbits) |
| --- | --- | --- | --- | --- | --- |
| CC(C)(Sc1cc(C(C)(C)C)c(O)c(C(C)(C)C)c1)Sc1cc(C(C)(C)C)c(O)c(C(C)(C)C)c1 [Probucol] | up to 43% | did not reduce the total cholesterol | 15-45% |  |  |
| Vitamin E |  |  |  | up to 73% | without reducing the total blood cholesterol |
